Where a name gives a salt, the structure may show the parent alone.
Tests used:
[1] = Stability in human plasma; type: in vitro ADME; conditions: pooled human plasma (lithium heparin), 1 μM compound, 37° C., 1 hour incubation
Description: The stability of the compounds of the invention in human plasma may be measured as follows:
Stability in Human Plasma
Blood was taken from healthy volunteers in lithium heparin tubes and plasma was prepared by centrifugal separation of blood cells at 1500 g. Plasma from at least 3 individuals was pooled and used for compound stability determination.
Compounds were prepared in 100% DMSO at a concentration of 10 mM and serially diluted to a concentration of 100 μM. Incubations were performed at a final concentration of 1 μM and were initiated by addition of 3 μl of 100 μM compound stock solution into 297 μl plasma, pre-warmed in a water bath to 37° C., followed by brief vortex mixing. 50 μl aliquots of plasma were removed at 4 timepoints over a 1 hour incubation period and quenched immediately by protein precipitation achieved by addition of the aliquot of plasma to a pre-prepared 96 well plate containing 150 μl of acetonitrile containing an appropriate internal standard. Acetonitrile quenched samples were vortex mixed followed by centrifugation for 20 minutes at 1500 g to remove the precipitated proteins. Initial compound levels (at time=0 minutes) was established by spiking compound into pre-quenched plasma at the same concentration as used in the incubation. The supernatant was then removed, diluted 1:1 with water and analysed for compound remaining by liquid chromatography-tandem mass spectrometry (Waters Acquity HPLC, Applied Biosystems API4000). The plasma elimination rate constant of the compound was calculated by fitting the peak area ratio of compound:internal standard to an exponential decay function and the half life calculated by division of the natural log of 2 by the elimination rate constant (Microsoft Excel).

[2] = biological target: T1, epithelial sodium channel (ENaC) (Homo sapiens, UniProt P37088+P51168+P51170); assay: Short circuit current (ISC) measurements in Human Bronchial Epithelial cells (HBEC-ENaC); type: cell-based; conditions: inhibition of amiloride-sensitive ISC, HBECs at air-liquid interface, Ussing chamber, apical addition
T1 construct: host or cells: primary Human Bronchial Epithelial cells (HBECs), differentiated at air-liquid interface
T1 sequence (P37088 1-669): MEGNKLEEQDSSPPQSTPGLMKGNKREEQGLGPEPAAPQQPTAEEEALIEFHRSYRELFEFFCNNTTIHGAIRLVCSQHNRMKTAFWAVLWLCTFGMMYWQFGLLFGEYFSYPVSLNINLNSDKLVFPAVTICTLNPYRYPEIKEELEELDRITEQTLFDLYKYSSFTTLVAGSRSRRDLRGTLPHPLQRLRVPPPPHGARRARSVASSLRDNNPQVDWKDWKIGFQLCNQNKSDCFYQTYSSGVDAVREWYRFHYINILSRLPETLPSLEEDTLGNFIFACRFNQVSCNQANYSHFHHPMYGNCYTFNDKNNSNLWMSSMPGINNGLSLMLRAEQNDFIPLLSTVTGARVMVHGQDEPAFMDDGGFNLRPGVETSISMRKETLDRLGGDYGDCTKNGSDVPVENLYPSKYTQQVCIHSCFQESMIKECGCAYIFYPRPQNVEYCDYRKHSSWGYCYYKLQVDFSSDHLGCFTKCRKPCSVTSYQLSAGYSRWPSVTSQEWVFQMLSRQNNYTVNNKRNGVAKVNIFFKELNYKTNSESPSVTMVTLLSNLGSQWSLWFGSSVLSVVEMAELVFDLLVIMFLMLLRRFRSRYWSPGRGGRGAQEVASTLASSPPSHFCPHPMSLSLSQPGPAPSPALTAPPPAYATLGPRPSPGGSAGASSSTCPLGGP
T1 sequence (P51168 1-640): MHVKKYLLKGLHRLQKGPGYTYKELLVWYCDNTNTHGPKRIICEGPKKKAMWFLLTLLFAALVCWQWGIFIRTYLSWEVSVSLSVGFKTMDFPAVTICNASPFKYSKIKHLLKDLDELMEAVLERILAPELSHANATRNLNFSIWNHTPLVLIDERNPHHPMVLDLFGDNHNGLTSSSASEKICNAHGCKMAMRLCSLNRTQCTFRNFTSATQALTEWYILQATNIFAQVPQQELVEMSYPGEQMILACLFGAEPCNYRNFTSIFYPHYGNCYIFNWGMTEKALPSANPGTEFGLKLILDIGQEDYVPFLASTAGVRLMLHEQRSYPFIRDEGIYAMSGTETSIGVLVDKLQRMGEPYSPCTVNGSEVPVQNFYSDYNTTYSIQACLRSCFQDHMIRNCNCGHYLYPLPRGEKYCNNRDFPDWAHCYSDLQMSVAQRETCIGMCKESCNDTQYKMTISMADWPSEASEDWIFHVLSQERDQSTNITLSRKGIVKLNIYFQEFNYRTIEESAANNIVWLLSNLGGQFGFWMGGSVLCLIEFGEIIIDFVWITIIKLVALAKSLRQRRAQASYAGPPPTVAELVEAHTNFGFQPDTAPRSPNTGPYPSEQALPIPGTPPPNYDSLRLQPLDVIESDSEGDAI
T1 sequence (P51170 1-649): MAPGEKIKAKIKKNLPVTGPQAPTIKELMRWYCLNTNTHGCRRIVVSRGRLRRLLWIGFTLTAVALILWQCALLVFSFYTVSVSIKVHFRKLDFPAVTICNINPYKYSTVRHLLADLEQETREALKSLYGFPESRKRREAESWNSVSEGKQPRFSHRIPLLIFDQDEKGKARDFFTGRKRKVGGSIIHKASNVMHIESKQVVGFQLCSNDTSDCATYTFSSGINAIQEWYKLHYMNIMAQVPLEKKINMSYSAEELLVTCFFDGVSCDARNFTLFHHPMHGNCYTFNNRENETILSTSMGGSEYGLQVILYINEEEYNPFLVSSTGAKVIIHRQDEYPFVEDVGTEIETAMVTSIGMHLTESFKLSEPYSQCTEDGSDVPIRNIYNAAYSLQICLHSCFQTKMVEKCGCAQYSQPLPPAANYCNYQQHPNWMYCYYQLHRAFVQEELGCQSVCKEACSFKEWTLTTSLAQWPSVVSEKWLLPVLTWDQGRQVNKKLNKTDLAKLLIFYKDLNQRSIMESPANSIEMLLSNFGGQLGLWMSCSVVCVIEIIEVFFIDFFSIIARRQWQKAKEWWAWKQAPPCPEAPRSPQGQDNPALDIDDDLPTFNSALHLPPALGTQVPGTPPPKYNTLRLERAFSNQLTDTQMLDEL
Description: Human Bronchial Epithelial cells (HBECs) (Cambrex) were cultured under air-liquid interface conditions to provide a well differentiated mucociliary phenotype.
Medium was changed every 48 hours until cells were 90% confluent. […] Cells were maintained submerged for the first 7 days in culture, after which time they were exposed to an apical air interface for the remainder of the culture period. At this time, media was changed to DMEM:F12 media containing 2% v/v Ultroser G for the remainder of culture. Amphotericin B was removed from all media 3 feeds prior to use in the Ussing Chambers. Cells were used between days 7 and 21 after establishment of the apical-air interface. At all stages of culture, cells were maintained at 37° C. in 5% CO2 in an air incubator.
Short Circuit Current (ISC) Measurements
Snapwell inserts were mounted in Vertical Diffusion Chambers (Costar) and were bathed with continuously gassed Ringer solution (5% CO2 in O2; pH 7.4) maintained at 37° C. containing (in mM): 120 NaCl, 25 NaHCO3, 3.3 KH2PO4, 0.8 K2HPO4, 1.2 CaCl2, 1.2 MgCl2, and 10 glucose. The solution osmolarity was between 280 and 300 mOsmol/kg H2O for all physiological salt solutions used. Cells were voltage clamped to 0 mV (model EVC4000; WPI). RT was measured by applying a 1- or 2-mV pulse at 30-s intervals and calculating RT by Ohm's law. Data were recorded using a PowerLab workstation (ADInstruments).
Test compounds were prepared as a 10 mM stock solution in DMSO (95%). Serial 3-fold dilutions were freshly prepared in an appropriate vehicle (distilled H2O or Ringers solution). The initial concentration was added to the apical chamber as a 1000× concentrate in 5 μL, resulting in a final 1× concentration the 5 mL volume of the Ussing chamber. Subsequent additions of compound were added in a 3.3 μL volume of the 1000× serially diluted stock solution. At the completion of the concentration-response experiment, amiloride (10 μM) was added into the apical chamber to enable the total amiloride-sensitive current to be measured. An amiloride control IC50 was established at the start of each experiment.
Results are expressed as the mean % inhibition of the amiloride-sensitive ISC. […] Cell inserts were typically run in duplicate and the IC50 calculated on the mean % inhibition data.

Structure (SMILES) | half-life at 1 μM [1] | IC50 [2]
Nc1nc(N)c(C(=O)/N=C2\NCC3(CCN(C(=O)CCc4ccc(OCC(=O)OCCN5CCCCC5=O)c(Cl)c4)CC3)N2)nc1Cl [Example 4.1, [2-Chloro-4-(3-{2-[(E)-3,5-diamino-6-chloro-pyrazine-2-carbonylimino]-1,3,8-triaza-spiro[4.5]dec-8-yl}-3-oxo-propyl)-phenoxy]-acetic acid 2-(2-oxo-piperidin-1-yl)ethyl ester] | 3 min | 132 nM
CC(C)(C)OC(=O)COC(=O)COc1ccc(CCC(=O)N2CCC3(CC2)CN/C(=N\C(=O)c2nc(Cl)c(N)nc2N)N3)cc1 [Example 2.1, [4-(3-{2-[(E)-3,5-Diamino-6-chloro-pyrazine-2-carbonylimino]-1,3,8-triaza-spiro[4.5]dec-8-yl}-3-oxo-propyl)-phenoxy]-acetic acid tert-butoxycarbonylmethyl ester] | 5 min | 30 nM
CCCN(CCC)C(=O)COC(=O)COc1ccc(CCC(=O)N2CCC3(CC2)CN/C(=N\C(=O)c2nc(Cl)c(N)nc2N)N3)cc1 [Example 2.0, [4-(3-{2-[(E)-3,5-Diamino-6-chloro-pyrazine-2-carbonylimino]-1,3,8-triaza-spiro[4.5]dec-8-yl}-3-oxo-propyl)-phenoxy]-acetic acid dipropylcarbamoylmethyl ester] | 1 min | 32 nM
Nc1nc(N)c(C(=O)/N=C2\NCC3(CCN(C(=O)CCc4ccc(OCC(=O)OCC(=O)N5CCCCC5)cc4)CC3)N2)nc1Cl [Example 2.4, [4-(3-{2-[(E)-3,5-Diamino-6-chloro-pyrazine-2-carbonylimino]-1,3,8-triaza-spiro[4.5]dec-8-yl}-3-oxo-propyl)-phenoxy]-acetic acid 2-oxo-2-piperidin-1-yl-ethyl ester] |  | 110 nM
CN(CCO)C(=O)COC(=O)COc1ccc(CCC(=O)N2CCC3(CC2)CN/C(=N/C(=O)c2nc(Cl)c(N)nc2N)N3)cc1 [Example 1.1, [4-(3-{2-[(Z)-3,5-Diamino-6-chloro-pyrazine-2-carbonylimino]-1,3,8-triaza-spiro[4.5]dec-8-yl}-3-oxo-propyl)-phenoxy]-acetic acid [(2-hydroxy-ethyl)-methyl-carbamoyl]-methyl ester] |  | 419 nM
CCCN(CCC)C(=O)COC(=O)CCNS(=O)(=O)c1cccc(C(=O)N2CCC3(CC2)CN/C(=N\C(=O)c2nc(Cl)c(N)nc2N)N3)c1 [Example 1.0, 3-(3-{2-[(E)-3,5-Diamino-6-chloro-pyrazine-2-carbonylimino]-1,3,8-triaza-spiro[4.5]decane-8-carbonyl}-benzenesulfonylamino)-propionic acid dipropylcarbamoylmethyl ester succinate salt] | 2 min | 17 nM
Nc1nc(N)c(C(=O)/N=C2\NCC3(CCN(C(=O)c4cccc(S(=O)(=O)NCC5(C(=O)OCC(=O)N6CCCC6C(F)(F)F)CCC5)c4)CC3)N2)nc1Cl (stereo not drawn) [Example 5.2, 1-[(3-{2-[(E)-3,5-Diamino-6-chloro-pyrazine-2-carbonylimino]-1,3,8-triaza-spiro[4.5]decane-8-carbonyl}-benzenesulfonylamino)-methyl]-cyclobutanecarboxylic acid 2-oxo-2-(2-trifluoromethyl-pyrrolidin-1-yl)-ethyl ester] | 39 min | 19 nM
CCN(CC)C(=O)COC(=O)COc1ccc(CCC(=O)N2CCC3(CC2)CN/C(=N\C(=O)c2nc(Cl)c(N)nc2N)N3)cc1 [Example 2.3, [4-(3-{2-[(E)-3,5-Diamino-6-chloro-pyrazine-2-carbonylimino]-1,3,8-triaza-spiro[4.5]dec-8-yl}-3-oxo-propyl)-phenoxy]-acetic acid diethylcarbamoylmethyl ester] |  | 89 nM
Nc1nc(N)c(C(=O)/N=C2\NCC3(CCN(C(=O)CCc4ccc(OCC(=O)OCC(=O)OCc5ccccc5)cc4)CC3)N2)nc1Cl [Example 2.2, [4-(3-{2-[(E)-3,5-Diamino-6-chloro-pyrazine-2-carbonylimino]-1,3,8-triaza-spiro[4.5]dec-8-yl}-3-oxo-propyl)-phenoxy]-acetic acid benzyloxycarbonylmethyl ester] |  | 12 nM
CN(C)C(=O)COC(=O)COc1ccc(CCC(=O)N2CCC3(CC2)CN/C(=N\C(=O)c2nc(Cl)c(N)nc2N)N3)cc1 [Example 1.4, [4-(3-{2-[(E)-3,5-Diamino-6-chloro-pyrazine-2-carbonylimino]-1,3,8-triaza-spiro[4.5]dec-8-yl}-3-oxo-propyl)-phenoxy]-acetic acid dimethylcarbamoylmethyl ester] |  | 302 nM

— patent US8372845B2, “Pyrazine derivatives as enac blockers” (Novartis AG, priority 2010, dated 2013)
